Results on nine compounds are retold here after paper PMC5897741, “Thermokinetic profile of NDM-1 and its inhibition by small carboxylic acids” (Bioscience Reports, 2018).

Experiment [1] has as its system clinical E. coli strain expressing NDM-1 gene (E. coli–NDM-1). As to conditions: 400 μM compound, imipenem titrated into E. coli–NDM-1 suspension; efficacy order 7 > 1 > 8.
In experiment [2] the test system is clinical E. coli–NDM-1 strain. In words: MIC determination, broth microdilution (CLSI). As to conditions: for synergistic effect with imipenem: 200 and 400 μM inhibitor. Format: cell-based, Escherichia coli. As for the experimental part: Single colonies of E. coli–NDM-1 were used to inoculate Mueller–Hinton medium and were grown at 37°C overnight. […] Results were obtained after incubating the microtitre plate at 37°C for a further 18 h and turbidity of bacterial growth was recorded using a plate reader.

Experiment [3] deals with ImiS. As to conditions: cited from earlier work.
In experiment [4] the target is T1, NDM-1 (Klebsiella pneumoniae, UniProt C7C422). Description: biochemical. As to the method: Rates were also determined in the presence of inhibitor by pre-incubation with the enzyme for 30 min at RT before starting kinetic experiments. IC50 values were determined using GraphPad Prism5 software (GraphPadSoftware, La Jolla, CA, USA) by plotting percentage of inhibition against inhibitor concentration; average values from three measurements are reported.

For experiment [5], the system named is CcrA. As to conditions: cited from earlier work.
Experiment [6] concerns the target T1, NDM-1. Description: ITC multi-injection inhibition assay. Format: biochemical. Also noted: made in house; host or cells: E. coli. Conditions: for Kiu (uncompetitive inhibition constant): ITC inhibition assay, penicillin G, 25°C, 50 mM Tris–HCl, pH 7.0, 100 mM NaCl; for mode of inhibition: pH 7.0. The text has this:
Competitive (Kic) and uncompetitive (Kiu) inhibition constant values for each inhibitor were obtained by fitting calculated reaction rates (υ) at different inhibitor concentrations to (eqn 5) using nonlinear regression analysis in Origin software (embedded with ITC), with Kic and Kiu set as shared parameters between all datasets, inhibitor concentration [I], [E]tot, [S] as independent variables and υ as dependent variable.

Experiment [7] deals with L1. As to conditions: cited from earlier work.
Experiment [8] addresses T1, NDM-1. As to conditions: ITC, pH 7.0, 25°C. The text has this:
Successive injections of antibiotic into the sample cell were made at 120 s intervals. Following (eqn 3), the change in thermal power (dQ/dt) from each titration was converted into the reaction rate (υ). These rates were used to fit to the Michaelis–Menten equation (eqn 4) to obtain the kinetic parameters KM (Michaelis–Menten constant) and kcat (turnover rates), where [E]tot is the total concentration of active enzyme. (3) υ=dP/dt=1/VΔHapp⋅dQ/dt (4) υ=kcat[E]tot[S]/KM+[S]

For experiment [9], the target named is T1, NDM-1. Description: ITC single injection assay, enthalpy of β-lactam hydrolysis. Format: biochemical. Further details: made in house; host or cells: E. coli. Conditions: for ΔHapp: NDM-1 catalysed hydrolysis, Tris–HCl pH 7.0, 25°C; for ΔHint: Y-axis intercept of ΔHapp vs ΔHion; for ΔHint / n (number of exchanging protons): pH 7.0; for n (number of exchanging protons): slope of ΔHapp vs ΔHion. As for the experimental part:
Real-time changes of heat-flow were recorded continuously until return to baseline. Control experiments were performed by titrating substrate to buffer and using those data in corrections for heat of dilution before values of ΔHapp were determined using the embedded Origin software, by dividing integrated heat by the molar quantity of substrate converted according to (eqn 1), where dQ/dt is the rate of heat production, V is the volume of the sample cell and [S]t = 0 is the substrate concentration: (1) ΔH=ft=0∞dQ/dtdt/(V[S](t=0))
Experiments were also repeated in HEPES and phosphate buffers and the intrinsic enthalpy change (ΔHint) of the reactions calculated according to (eqn 2) by plotting the measured ΔHapp as a function of ΔHion, where ΔHion is the ionisation enthalpy of the buffer used and n represents the number of exchanging protons. The values of ΔHion used in the calculation were ΔHion (Tris–HCl) = 11.34 kcal/mol, ΔHion (HEPES) = 4.88 kcal/mol and ΔHion (phosphate) = 0.86 kcal/mol. (2) ΔHapp=ΔHint+n ΔHion

For experiment [10], the target named is T1, NDM-1. Further details: made in house; host or cells: E. coli; method as in doi:10.1016/j.ejbas.2015.07.006. Conditions: cited from earlier work.
In experiment [11] the test system is IMP-1. As to conditions: cited from earlier work.
Experiment [12] relates to CphA. Conditions: cited from earlier work.

T1 sequence (C7C422 29-270 limits assumed): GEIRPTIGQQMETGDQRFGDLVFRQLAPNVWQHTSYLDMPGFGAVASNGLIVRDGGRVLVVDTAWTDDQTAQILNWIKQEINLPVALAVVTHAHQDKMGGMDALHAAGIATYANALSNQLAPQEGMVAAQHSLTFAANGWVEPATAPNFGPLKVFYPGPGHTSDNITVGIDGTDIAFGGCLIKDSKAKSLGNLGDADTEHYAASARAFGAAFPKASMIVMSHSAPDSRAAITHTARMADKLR

With `O=C(O)[C@H]1CS[C@@H](C(=O)O)N1` (racemic) [Compound 8, rac-thiazolidine-2,4-dicarboxylic acid], in experiment [1], the “inhibition of imipenem turnover in live bacteria” value is listed as “capable of inhibiting the turnover rate of imipenem”. Moreover, the “MIC of imipenem in combination with inhibitor” value (“MIC … with inhibitor” below) turned out to be 16 µg/mL in experiment [2] (200 μM inhibitor) and 8 µg/mL in [2] (400 μM inhibitor). Further, the “reduction of MIC of imipenem” value in experiment [2] (400 μM inhibitor) was found to be 2 fold. Further, the “synergistic effect with imipenem” value in experiment [2] is “weaker synergy”. Moreover, the “effect on activity” value in [3], in [5] and in experiment [7] was “powerful effect” in each case. The Ki in experiment [3] (class B2 ImiS) was 7.1 µM; in experiment [5] (class B1 CcrA), 0.64 µM; in experiment [6], 152 ± 6 µM; in experiment [7] (class B3 L1) it was 1.8 µM. In [4], this compound gave an IC50 of 3.45 ± 0.26 µM. In [6], the “Kiu (uncompetitive inhibition constant)” value was found to be 5 ± 0.46 µM. Also, the mode of inhibition entry in experiment [6] is recorded as “predominantly uncompetitive”.

In the case of `Cc1nnc(SCC2=C(C(=O)O)N3C(=O)[C@@H](NC(=O)Cn4cnnn4)[C@H]3SC2)s1` [Cefazolin, cefazolin], in experiment [8], the Km is 237 ± 14 µM and the turnover number (kcat) is 42 ± 1 s⁻¹. Further, in experiment [9], the ΔHapp is -28.3 ± 0.97 kcal/mol, the ΔHint is -5.20 ± 0.04 kcal/mol and the “n (number of exchanging protons)” value is recorded as −1.89 ± 0.04. Also, the ΔHapp result in experiment [9] (listed as cefazolin) is “–28.3 kcal/mol”.

In the case of `C[C@H](CS)C(=O)N1CCC[C@@H]1C(=O)O` [Compound 1, D-Captopril, reference compound], in experiment [6], the “Kiu (uncompetitive inhibition constant)” value was found to be 178 ± 21 µM.

Consider `Cc1cc(/N=N/c2ccc(O)c(C(=O)O)c2)ccc1O` [Compound 2], for which the “predicted inhibition in docking” value in experiment [10] is “predicted to inhibit NDM-1”.

As to `O=C(O)[C@@H](O)[C@H](O)C(=O)O` [Compound 5, D-(−)-tartaric acid], half-maximal inhibition in experiment [4] (IC50) was put at 409 ± 16 µM. In experiment [6], affinity was put at a Ki of 365 ± 72 µM, the “Kiu (uncompetitive inhibition constant)” value turned out to be 993 ± 107 µM and the mode of inhibition entry is listed as “mainly competitive”.

In turn, `O=C(O)/C=C/C(=O)O` [Compound 6, fumaric acid] registered a half-inhibitory concentration (IC50) in experiment [4] of 232 ± 5 µM. In experiment [6], the affinity, expressed as Ki, was 198 ± 50 µM; the “Kiu (uncompetitive inhibition constant)” value worked out at 638 ± 94 µM; the mode of inhibition entry is on record as “mainly competitive”.

For `O=C(O)c1cccc(C(=O)O)n1` [Compound 7, pyridine-2,6-dicarboxylic acid], the “inhibition” value in [11] is “effective inhibitor”. The “inhibition of imipenem turnover in live bacteria” value in experiment [1] is listed as “capable of inhibiting the turnover rate of imipenem”. Further, in experiment [2] (200 μM inhibitor), the “MIC … with inhibitor” value came out at 4 µg/mL. Also, the “MIC … with inhibitor” value in [2] (400 μM inhibitor) came to 1 µg/mL. Further, the “synergistic effect with imipenem” value in [2] is “restore the susceptibility”. In addition, the “inhibition” value in experiment [12] is listed as “effective inhibitor”. For the same compound, the IC50 in experiment [4] came to 1.13 ± 0.04 µM. Besides, in experiment [6], the Ki turned out to be 2.17 ± 0.48 µM, the “Kiu (uncompetitive inhibition constant)” value was 2.07 ± 0.06 µM and the mode of inhibition entry is given as “mixed inhibitor”.

For `C[C@@H](O)[C@H]1C(=O)N2C(C(=O)O)=C(SCCN=CN)C[C@H]12` [Imipenem, imipenem], in experiment [8], the Km is 168 ± 28 µM and the kcat amounted to 23 ± 1 s⁻¹. Further, in [2] (Escherichia coli, 0 μM inhibitor, read-out: MIC of imipenem), the MIC was determined as 16 µg/mL. In [9], the ΔHapp was -32.5 ± 0.08 kcal/mol, the ΔHint is -18.4 ± 0.12 kcal/mol and the “n (number of exchanging protons)” value is −1.24 ± 0.02. In addition, in experiment [9] (listed as imipenem), the ΔHapp entry is on record as “–32.5 kcal/mol” and the “n (number of exchanging protons)” value is on record as −1.24 (± 0.02).

On to `CC1(C)S[C@@H]2[C@H](NC(=O)Cc3ccccc3)C(=O)N2[C@H]1C(=O)O` [Penicillin G, penicillin G], for which, in experiment [8], the Michaelis constant (Km) is 139 ± 12 µM and the catalytic constant (kcat) was found to be 54 ± 1 s⁻¹. For the same compound, in experiment [9], the ΔHapp was -27.9 ± 0.01 kcal/mol, the ΔHint was -18.3 ± 0.73 kcal/mol and the “n (number of exchanging protons)” value is listed as −0.87 ± 0.10. In [9] (listed as penicillin G), the ΔHapp result is on record as “–27.9 kcal/mol” and the “n (number of exchanging protons)” value is given as −0.87 (± 0.10).
